Measured values reported in patent US20100010057A1, “THIAZOLE DERIVATIVES AS INHIBITORS OF P13 KINASE” (CHROMA THERAPEUTICS LTD., priority 2006, published 2010).

Columns and labels:
[1] = test system: human whole blood; assay: LPS-stimulation of human whole blood, TNF-α release; assay type: cell-based; conditions: LPS 100 ng/ml, 6 h, TNF-α by ELISA, IC50 range, read-out: Inhibitor activity versus human whole blood TNFα release
Method: (D) LPS-Stimulation of Human Whole Blood
Whole blood is taken by venous puncture using heparinised vacutainers (Becton Dickinson) and diluted in an equal volume of RPMI1640 tissue culture media (Sigma). 100 μl is plated in V-bottomed 96 well tissue culture treated plates. 2 h after the addition of the inhibitor in 100 μl of RPMI1640 media, the blood is stimulated with LPS (E. coli strain 005:B5, Sigma) at a final concentration of 100 ng/ml and incubated at 37° C. in 5% CO2 for 6 h. TNF-α levels are measured from cell-free supernatants by sandwich ELISA (R&D Systems #QTA00B)
(§1) For each of the assays (B), (C) and (D) above, IC50 values are allocated to one of three ranges as follows: […]

[2] = target: PI3Kγ (human) (Homo sapiens, UniProt P48736); assay: Inhibition of PI3 kinase γ activity (HTRF); assay type: biochemical; conditions: ATP at or close to Km, IC50 range, read-out: Inhibitor activity versus PI3 Kinase γ
Method: (B) Inhibition of PI3 Kinase V Activity
In a final reaction volume of 20 μl, PI3Kγ (human) is incubated in assay buffer containing 10 μM phosphatidylinositol-4,5-bisphosphate and MgATP (concentration as required). The reaction is initiated by the addition of the MgATP mix. After incubation for 30 minutes at room temperature, the reaction is stopped by the addition of 5 μl of stop solution containing EDTA and biotinylated phosphatidylinositol-3,4,5-trisphosphate. Finally, 5 μl of detection buffer is added, which contains europium-labelled anti-GST monoclonal antibody, GST-tagged GRP1 PH domain and streptavidin-allophycocyanin. The plate is then read in time-resolved fluorescence mode and the homogenous time-resolved fluorescence (HTRF) signal is determined according to the formula HTRF=10000×(Em665 nm/Em620 nm).
Duplicate data points are generated from a ⅓ log dilution series of a stock solution of compound in DMSO. Nine dilutions steps are made from a top concentration of 10 μM, and a ‘no compound’ blank is included. The HTRF PI 3-Kinase assay is performed at an ATP concentration at, or close to, the Km. HTRF ratio data is transformed into % activity of controls and analysed with a four parameter sigmoidal dose-response (variable slope) application. QC criteria is based on Top, Bottom, Hill slope, r^2 and IC50, the concentration giving 50% inhibition, which is reported.
as §1

[3] = test system: THP-1 cells; assay: LPS-stimulation of THP-1 cells, TNF-α release; assay type: cell-based; conditions: Homo sapiens, LPS 1 μg/ml, 6 h, TNF-α by ELISA, IC50 range, read-out: Inhibitor activity versus THP-1 TNFα release
Method: (C) LPS-Stimulation of THP-1 Cells
THP-1 cells are plated in 100 μl at a density of 4×10^4 cells/well in V-bottomed 96 well tissue culture treated plates and incubated at 37° C. in 5% CO2 for 16 h. 2 h after the addition of the inhibitor in 100 μl of tissue culture media, the cells are stimulated with LPS (E. coli strain 005:B5, Sigma) at a final concentration of 1 μg/ml and incubated at 37° C. in 5% CO2 for 6 h. TNF-α levels are measured from cell-free supernatants by sandwich ELISA (R&D Systems #QTA00B)
as §1

Sequence of PI3Kγ (human) (P48736 whole entry): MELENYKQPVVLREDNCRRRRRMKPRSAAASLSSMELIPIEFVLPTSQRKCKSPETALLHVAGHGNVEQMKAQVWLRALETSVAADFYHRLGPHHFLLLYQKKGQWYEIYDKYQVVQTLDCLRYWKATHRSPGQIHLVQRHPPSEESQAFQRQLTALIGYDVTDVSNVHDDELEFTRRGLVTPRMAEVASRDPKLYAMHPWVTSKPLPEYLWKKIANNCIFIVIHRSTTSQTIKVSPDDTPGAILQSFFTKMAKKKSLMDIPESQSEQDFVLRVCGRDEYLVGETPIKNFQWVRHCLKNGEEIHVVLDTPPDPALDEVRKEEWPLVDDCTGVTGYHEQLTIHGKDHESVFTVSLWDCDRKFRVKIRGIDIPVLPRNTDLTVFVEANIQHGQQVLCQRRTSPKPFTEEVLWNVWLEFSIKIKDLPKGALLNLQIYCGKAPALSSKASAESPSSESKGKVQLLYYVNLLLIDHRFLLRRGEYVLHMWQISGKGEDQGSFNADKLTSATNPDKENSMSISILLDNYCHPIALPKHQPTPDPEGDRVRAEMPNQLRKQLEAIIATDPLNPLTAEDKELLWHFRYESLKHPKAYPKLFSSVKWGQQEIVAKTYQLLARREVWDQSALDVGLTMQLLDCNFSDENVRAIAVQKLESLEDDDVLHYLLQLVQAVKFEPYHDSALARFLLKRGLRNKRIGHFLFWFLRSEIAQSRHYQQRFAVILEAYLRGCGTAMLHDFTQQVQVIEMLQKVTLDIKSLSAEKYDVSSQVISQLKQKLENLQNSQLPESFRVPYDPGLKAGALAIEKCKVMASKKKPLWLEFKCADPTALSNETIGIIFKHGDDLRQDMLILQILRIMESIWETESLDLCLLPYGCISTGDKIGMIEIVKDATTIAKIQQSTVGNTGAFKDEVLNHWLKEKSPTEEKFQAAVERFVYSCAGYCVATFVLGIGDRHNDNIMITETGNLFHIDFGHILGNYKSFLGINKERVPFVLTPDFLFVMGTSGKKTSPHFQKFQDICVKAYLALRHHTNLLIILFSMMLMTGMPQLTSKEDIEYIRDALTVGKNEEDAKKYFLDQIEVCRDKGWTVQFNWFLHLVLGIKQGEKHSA

| Compound | IC50 [1] [nM] | IC50 [2] [nM] | IC50 [3] [nM] |
| --- | --- | --- | --- |
| Cc1nc(NC(=O)CCCN[C@@H](C)C(=O)OC2CCCC2)sc1-c1ccc(Cl)c(S(C)(=O)=O)c1 [Example 7, Cyclopentyl N-[4-({5-[4-chloro-3-(methylsulfonyl)phenyl]-4-methyl-1,3-thiazol-2-yl}amino)-4-oxobutyl]-L-alaninate] | 100 to 1000 | > 1000 | 100 to 1000 |
| Cc1nc(NC(=O)CCCN[C@@H](CO)C(=O)OC2CCCC2)sc1-c1ccc(Cl)c(S(C)(=O)=O)c1 [Example 24, Cyclopentyl N-[4-({5-[4-chloro-3-(methylsulfonyl)phenyl]-4-methyl-1,3-thiazol-2-yl}amino)-4-oxobutyl]-L-serinate] | 100 to 1000 | > 1000 | < 100 |
| Cc1nc(NCC2CCC(N[C@@H](CC(C)C)C(=O)OC3CCCC3)CC2)sc1-c1ccc(Cl)c(S(C)(=O)=O)c1 (stereo partly drawn) [Example 18, Cyclopentyl N-{4-[({5-[4-chloro-3-(methylsulfonyl)phenyl]-4-methyl-1,3-thiazol-2-yl}amino)methyl]cyclohexyl}-L-leucinate] |  | > 1000 | > 1000 |
| Cc1nc(NCCCN[C@@H](CC(C)C)C(=O)OC2CCCC2)sc1-c1ccc(Cl)c(S(C)(=O)=O)c1 [Example 17, Cyclopentyl N-[3-({5-[4-chloro-3-(methylsulfonyl)phenyl]-4-methyl-1,3-thiazol-2-yl}amino)propyl]-L-leucinate] |  | > 1000 | > 1000 |
| Cc1nc(NC(=O)CCCN[C@@H](Cc2ccccc2)C(=O)OC2CCCC2)sc1-c1ccc(Cl)c(S(C)(=O)=O)c1 [Example 11, Cyclopentyl N-[4-({5-[4-chloro-3-(methylsulfonyl)phenyl]-4-methyl-1,3-thiazol-2-yl}amino)-4-oxobutyl]-L-phenylalaninate] |  | > 1000 | > 1000 |
| Cc1nc(NC(=O)CCCN[C@H](C(=O)OC2CCCC2)C2CCCCC2)sc1-c1ccc(Cl)c(S(C)(=O)=O)c1 [Example 13, Cyclopentyl (2S)-{[4-({5-[4-chloro-3-(methylsulfonyl)phenyl]-4-methyl-1,3-thiazol-2-yl}amino)-4-oxobutyl]amino}(cyclohexyl)acetate] |  | > 1000 | > 1000 |
| Cc1nc(NC(=O)CCN[C@@H](C)C(=O)OC2CCCC2)sc1-c1ccc(Cl)c(S(C)(=O)=O)c1 [Example 16, Cyclopentyl N-[3-({5-[4-chloro-3-(methylsulfonyl)phenyl]-4-methyl-1,3-thiazol-2-yl}amino)-3-oxopropyl]-L-alaninate] |  | > 1000 | 100 to 1000 |
| Cc1nc(NC(=O)CCCN[C@@H](CC(C)C)C(=O)OC(C)(C)C)sc1-c1ccc(Cl)c(S(C)(=O)=O)c1 [Example 14, tert-Butyl N-[4-({5-[4-chloro-3-(methylsulfonyl)phenyl]-4-methyl-1,3-thiazol-2-yl}amino)-4-oxobutyl]-L-leucinate] |  | > 1000 | > 1000 |
| Cc1nc(NC(=O)CCCN[C@@H](COC(C)(C)C)C(=O)OC2CCCC2)sc1-c1ccc(Cl)c(S(C)(=O)=O)c1 [Example 12, Cyclopentyl O-tert-butyl-N-[4-({5-[4-chloro-3-(methylsulfonyl)phenyl]-4-methyl-1,3-thiazol-2-yl}amino)-4-oxobutyl]-L-serinate] |  | > 1000 | > 1000 |

The next lines start with the values.

| IC50 [1] [nM] | IC50 [2] [nM] | IC50 [3] [nM] | Compound |
| --- | --- | --- | --- |
| > 1000 | 100 to 1000 | 100 to 1000 | Cc1nc(NC(=O)CCCN[C@@H](CC(C)C)C(=O)OC2CCCC2)sc1-c1ccc(Cl)c(S(C)(=O)=O)c1 [Example 6, Cyclopentyl N-[4-({5-[4-chloro-3-(methylsulfonyl)phenyl]-4-methyl-1,3-thiazol-2-yl}amino)-4-oxobutyl]-L-leucinate] |
|  | 100 to 1000 | > 1000 | CC(=O)Nc1nc(C)c(-c2ccc(Cl)c(S(=O)(=O)N[C@@H](COC(C)(C)C)C(=O)OC3CCCC3)c2)s1 [Example 21, Cyclopentyl N-{[5-(2-acetamido-4-methyl-3-thiazol-5-yl)-2-chlorophenyl]sulfonyl}-O-tert-butyl-L-serinate] |
|  | > 1000 | > 1000 | Cc1nc(NC(=O)N[C@@H](CO)C(=O)OC2CCCC2)sc1-c1ccc(Cl)c(S(C)(=O)=O)c1 [Example 23, Cyclopentyl N-({5-[4-chloro-3-(methylsulfonyl)phenyl]-4-methyl-1,3-thiazol-2-yl}carbamoyl)-L-serinate] |
|  | < 100 | > 1000 | Cc1nc(NC(=O)CCCN[C@@H](COP(=O)(O)O)C(=O)OC2CCCC2)sc1-c1ccc(Cl)c(S(C)(=O)=O)c1 [Example 26, Cyclopentyl N-[4-({5-[4-chloro-3-(methylsulfonyl)phenyl]-4-methyl-1,3-thiazol-2-yl}amino)-4-oxobutyl]-O-phosphono-L-serinate] |
|  | 100 to 1000 | > 1000 | CC(=O)Nc1nc(C)c(-c2ccc(Cl)c(S(=O)(=O)N[C@@H](CO)C(=O)OC3CCCC3)c2)s1 [Example 25, Cyclopentyl N-{[5-(2-acetamido-4-methyl-1,3-thiazol-5-yl)-2-chlorophenyl]sulfonyl}-L-serinate] |
|  | 100 to 1000 | > 1000 | Cc1nc(NC(=O)CCCN[C@H](C(=O)OC2CCCC2)c2ccccc2)sc1-c1ccc(Cl)c(S(C)(=O)=O)c1 [Example 10, Cyclopentyl (2S)-{[4-({5-[4-chloro-3-(methylsulfonyl)phenyl]-4-methyl-1,3-thiazol-2-yl}amino)-4-oxobutyl]amino}(phenyl)acetate] |
